From the OligoGym collection
HELM strings list units from the 5' end as sugar, base in round brackets, then linkage (d deoxyribose, r ribose, m 2'-O-methyl, p phosphodiester). Strings are as the collection lists them, not checked against the first reports. ss, as = sense and antisense strand; [lna] = locked nucleic acid (LNA); [una] = unlocked nucleic acid; [hna] = hexitol nucleic acid; [fl2r] = 2'-fluoro
Further: test system not given here.

Settings: siRNA
Work on “RNA1{m(G)p.r(U)p.m(C)p.r(U)p.m(A)p.r(U)p.m(G)p.r(C)p.m(C)p.r(A)p.m(A)p.r(G)p.m(A)p.r(A)p.m(G)p.r(G)p.m(G)p.r(A)p.m(G)p.r(T)p.r(T)}|RNA2{r(C)p.r(U)p.r(C)p.r(C)p.r(C)p.r(U)p.r(U)p.r(C)p.r(U)p.r(U)p.r(G)p.r(G)p.r(C)p.r(A)p.r(U)p.r(A)p.r(G)p.r(A)p.r(C)p.r(T)p.r(T)}$$$RNA1{StrandType:ss}|RNA2{StrandType:as}$” yielded a target mRNA knockdown of 24%. For “RNA1{r(A)p.r(A)p.r(G)p.r(G)p.m(C)p.r(A)p.m(U)p.m(G)p.r(C)p.r(U)p.r(U)p.r(C)p.r(G)p.r(G)p.r(A)p.r(A)p.r(A)p.r(C)p.r(U)p.r(T)p.r(T)}|RNA2{r(A)p.r(G)p.r(U)p.r(U)p.r(U)p.r(C)p.r(C)p.r(G)p.r(A)p.r(A)p.r(G)p.m(C)p.r(A)p.m(U)p.r(G)p.r(C)p.r(C)p.r(U)p.r(U)p.r(T)p.r(T)}$$$RNA1{StrandType:ss}|RNA2{StrandType:as}$”, the target mRNA knockdown was 87%. Work on “RNA1{m(A)p.r(A)p.m(U)p.r(A)p.m(A)p.r(G)p.m(C)p.r(A)p.m(G)p.r(C)p.m(U)p.r(C)p.m(G)p.r(C)p.m(G)p.r(C)p.m(U)p.r(C)p.m(C)p.r(T)p.r(T)}|RNA2{r(G)p.r(G)p.m(A)p.r(G)p.r(C)p.r(G)p.r(C)p.r(G)p.m(A)p.r(G)p.r(C)p.r(U)p.r(G)p.r(C)p.r(U)p.r(U)p.m(A)p.r(U)p.r(U)p.r(T)p.r(T)}$$$RNA1{StrandType:ss}|RNA2{StrandType:as}$” yielded a target mRNA knockdown of 32%. Work on “RNA1{r(A)p.r(U)p.r(C)p.m(G)p.r(A)p.r(C)p.r(C)p.m(U)p.r(G)p.r(A)p.r(A)p.r(G)p.r(G)p.r(A)p.r(G)p.m(U)p.r(A)p.r(C)p.r(G)p.r(T)p.r(T)}|RNA2{r(C)p.r(G)p.m(U)p.r(A)p.r(C)p.r(U)p.r(C)p.r(C)p.r(U)p.r(U)p.m(C)p.r(A)p.r(G)p.r(G)p.r(U)p.r(C)p.r(G)p.r(A)p.r(U)p.r(T)p.r(T)}$$$RNA1{StrandType:ss}|RNA2{StrandType:as}$” yielded a target mRNA knockdown of 29%. “RNA1{r(A)p.r(U)p.r(C)p.r(U)p.r(G)p.r(A)p.r(A)p.r(G)p.r(A)p.r(A)p.r(G)p.r(G)p.r(A)p.r(G)p.r(A)p.r(A)p.r(A)p.r(A)p.r(A)p.[lna](T)p.[lna](T)}|RNA2{r(U)p.r(U)p.r(U)p.r(U)p.r(U)p.r(C)p.r(U)p.r(C)p.r(C)p.r(U)p.r(U)p.r(C)p.r(U)p.r(U)p.r(C)p.r(A)p.r(G)p.r(A)p.r(U)p.[lna](T)p.[lna](T)}$$$RNA1{StrandType:ss}|RNA2{StrandType:as}$” gave a target mRNA knockdown of 93%. Substance “RNA1{r(A)p.r(U)p.r(C)p.r(C)p.m(U)p.r(G)p.m(C)p.r(A)p.r(G)p.r(A)p.r(A)p.m(G)p.r(A)p.r(A)p.r(G)p.r(C)p.r(C)p.r(U)p.r(C)p.r(T)p.r(T)}|RNA2{r(G)p.r(A)p.r(G)p.r(G)p.r(C)p.r(U)p.r(U)p.r(C)p.r(U)p.r(U)p.r(C)p.m(U)p.r(G)p.m(C)p.r(A)p.r(G)p.r(G)p.r(A)p.r(U)p.r(T)p.r(T)}$$$RNA1{StrandType:ss}|RNA2{StrandType:as}$” has a target mRNA knockdown of 50%. “RNA1{[hna](G)p.[hna](A)p.[hna](C)p.r(G)p.r(U)p.r(A)p.r(A)p.r(A)p.r(C)p.r(G)p.r(G)p.r(C)p.r(C)p.r(A)p.r(C)p.r(A)p.r(A)p.[hna](G)p.[hna](U)p.[hna](U)p.d(T)}|RNA2{r(A)p.r(C)p.r(U)p.r(U)p.r(G)p.r(U)p.r(G)p.r(G)p.r(C)p.r(C)p.r(G)p.r(U)p.r(U)p.r(U)p.r(A)p.r(C)p.r(G)p.r(U)p.r(C)p.r(G)p.r(C)}$$$RNA1{StrandType:ss}|RNA2{StrandType:as}$” showed a target mRNA knockdown of 89%. For “RNA1{r(G)p.r(U)p.r(A)p.r(U)p.r(G)p.r(A)p.r(C)p.r(C)p.r(G)p.r(A)p.r(C)p.r(U)p.r(A)p.r(C)p.r(G)p.r(C)p.r(G)p.r(U)p.r(A)p.r(T)p.r(T)}|RNA2{r(U)p.r(U)p.r(C)p.r(A)p.r(G)p.r(U)p.r(G)p.r(U)p.[una](G)p.r(A)p.r(U)p.r(G)p.r(A)p.r(C)p.r(A)p.r(C)p.r(U)p.r(U)p.r(G)p.r(T)p.r(T)}$$$RNA1{StrandType:ss}|RNA2{StrandType:as}$”, the target mRNA knockdown was 89%. “RNA1{[fl2r](U)p.r(A)p.[fl2r](A)p.r(C)p.[fl2r](C)p.r(C)p.[fl2r](C)p.r(A)p.[fl2r](A)p.r(G)p.[fl2r](A)p.r(A)p.[fl2r](C)p.r(G)p.[fl2r](G)p.r(G)p.[fl2r](C)p.r(U)p.[fl2r](U)p.r(T)p.r(T)}|RNA2{[fl2r](A)p.[fl2r](A)p.r(G)p.r(C)p.r(C)p.r(C)p.r(G)p.r(U)p.r(U)p.r(C)p.r(U)p.r(U)p.r(G)p.r(G)p.r(G)p.r(G)p.r(U)p.r(U)p.[fl2r](A)p.r(T)p.r(T)}$$$RNA1{StrandType:ss}|RNA2{StrandType:as}$” gave a target mRNA knockdown of 47%. “RNA1{d(G)p.d(C)p.d(A)p.d(G)p.d(C)p.d(A)p.d(C)p.d(G)p.d(A)p.d(C)p.d(U)p.d(U)p.d(C)p.d(U)p.d(U)p.d(C)p.d(A)p.d(A)p.d(G)p.r(T)p.r(T)}|RNA2{d(C)p.d(U)p.d(U)p.d(G)p.d(A)p.d(A)p.d(G)p.d(A)p.d(A)p.d(G)p.d(U)p.d(C)p.d(G)p.d(U)p.d(G)p.d(C)p.d(U)p.d(G)p.d(C)p.r(T)p.r(T)}$$$RNA1{StrandType:ss}|RNA2{StrandType:as}$” showed a target mRNA knockdown of 0%. For “RNA1{[hna](G)p.[hna](A)p.[hna](C)p.r(G)p.r(U)p.r(A)p.r(A)p.r(A)p.r(C)p.r(G)p.r(G)p.r(C)p.r(C)p.r(A)p.r(C)p.r(A)p.r(A)p.[hna](G)p.[hna](U)p.[hna](U)p.d(T)}|RNA2{r(A)p.m(C)p.r(U)p.r(U)p.r(G)p.r(U)p.r(G)p.r(G)p.r(C)p.r(C)p.r(G)p.r(U)p.r(U)p.r(U)p.r(A)p.r(C)p.r(G)p.r(U)p.r(C)p.r(G)p.r(C)}$$$RNA1{StrandType:ss}|RNA2{StrandType:as}$”, the target mRNA knockdown was 84%. For “RNA1{r(G)p.r(G)p.r(A)p.r(A)p.r(G)p.r(A)p.r(A)p.r(G)p.r(A)p.[fl2r](U)p.r(A)p.r(G)p.r(A)p.r(G)p.[fl2r](C)p.r(A)p.r(U)p.r(C)p.r(C)p.r(T)p.r(T)}|RNA2{r(G)p.r(G)p.r(A)p.[fl2r](U)p.r(G)p.r(C)p.r(U)p.r(C)p.[fl2r](U)p.r(A)p.r(U)p.r(C)p.r(U)p.r(U)p.r(C)p.r(U)p.r(U)p.r(C)p.r(C)p.r(T)p.r(T)}$$$RNA1{StrandType:ss}|RNA2{StrandType:as}$”, the target mRNA knockdown was 37%. Work on “RNA1{r(C)p.r(U)p.r(U)p.r(A)p.r(C)p.r(G)p.r(C)p.r(U)p.r(G)p.r(A)p.r(G)p.r(U)p.r(A)p.r(C)p.r(U)p.r(U)p.r(C)p.r(G)p.r(A)p.r(T)p.r(T)}|RNA2{r(T)p.r(C)p.r(G)p.r(A)p.r(A)p.r(G)p.r(U)p.r(A)p.r(C)p.[lna](T)p.r(C)p.r(A)p.r(G)p.r(C)p.r(G)p.r(U)p.r(A)p.r(A)p.r(G)p.[lna](T)p.[lna](T)}$$$RNA1{StrandType:ss}|RNA2{StrandType:as}$” yielded a target mRNA knockdown of 60%. Substance “RNA1{r(G)p.r(G)p.r(G)p.r(A)p.r(G)p.r(G)p.r(U)p.r(C)p.r(U)p.m(U)p.r(A)p.r(G)p.r(A)p.r(A)p.r(A)p.r(A)p.r(C)p.r(A)p.r(C)p.r(T)p.r(T)}|RNA2{r(G)p.r(U)p.r(G)p.r(U)p.r(U)p.r(U)p.r(U)p.r(C)p.m(U)p.r(A)p.r(A)p.r(G)p.r(A)p.r(C)p.r(C)p.r(U)p.r(C)p.r(C)p.r(C)p.r(T)p.r(T)}$$$RNA1{StrandType:ss}|RNA2{StrandType:as}$” has a target mRNA knockdown of 84%. “RNA1{r(U)p.r(U)p.r(U)p.r(C)p.r(C)p.r(C)p.r(C)p.r(C)p.r(A)p.r(G)p.r(G)p.[fl2r](U)p.r(A)p.r(A)p.r(C)p.r(G)p.r(A)p.r(U)p.r(U)p.r(T)p.r(T)}|RNA2{r(A)p.r(A)p.r(U)p.r(C)p.r(G)p.r(U)p.[fl2r](U)p.r(A)p.r(C)p.r(C)p.r(U)p.r(G)p.r(G)p.r(G)p.r(G)p.r(G)p.r(A)p.r(A)p.r(A)p.r(T)p.r(T)}$$$RNA1{StrandType:ss}|RNA2{StrandType:as}$” gave a target mRNA knockdown of 75%. “RNA1{r(C)p.r(U)p.r(U)p.r(A)p.r(C)p.r(G)p.r(C)p.r(U)p.r(G)p.r(A)p.r(G)p.r(U)p.r(A)p.r(C)p.r(U)p.r(U)p.r(C)p.r(G)p.r(A)p.r(T)p.r(T)}|RNA2{r(U)p.r(C)p.r(G)p.[lna](A)p.r(A)p.r(G)p.r(U)p.r(A)p.r(C)p.r(U)p.r(C)p.r(A)p.r(G)p.r(C)p.r(G)p.r(U)p.r(A)p.r(A)p.r(G)p.r(T)p.r(T)}$$$RNA1{StrandType:ss}|RNA2{StrandType:as}$” gave a target mRNA knockdown of 85%. For “RNA1{[fl2r](A)p.r(G)p.[fl2r](G)p.r(A)p.[fl2r](G)p.r(A)p.[fl2r](C)p.r(C)p.[fl2r](G)p.r(U)p.[fl2r](G)p.r(A)p.[fl2r](C)p.r(A)p.[fl2r](U)p.r(U)p.[fl2r](U)p.r(C)p.[fl2r](G)p.r(T)p.r(T)}|RNA2{r(C)p.[fl2r](G)p.r(A)p.r(A)p.r(A)p.r(U)p.[fl2r](G)p.r(U)p.r(C)p.r(A)p.r(C)p.[fl2r](G)p.[fl2r](G)p.r(U)p.r(C)p.r(U)p.r(C)p.r(C)p.r(U)p.r(T)p.r(T)}$$$RNA1{StrandType:ss}|RNA2{StrandType:as}$”, the target mRNA knockdown was 33%. For “RNA1{r(A)p.r(G)p.r(A)p.r(G)p.r(U)p.m(U)p.r(G)p.r(G)p.r(G)p.r(A)p.r(U)p.m(U)p.r(A)p.r(G)p.r(G)p.r(G)p.r(C)p.r(U)p.r(U)p.r(T)p.r(T)}|RNA2{r(A)p.r(A)p.r(G)p.r(C)p.r(C)p.r(C)p.m(U)p.r(A)p.r(A)p.r(U)p.r(C)p.r(C)p.m(C)p.r(A)p.r(A)p.r(C)p.r(U)p.r(C)p.r(U)p.r(T)p.r(T)}$$$RNA1{StrandType:ss}|RNA2{StrandType:as}$”, the target mRNA knockdown was 68%. “RNA1{r(C)p.r(U)p.r(A)p.r(G)p.r(A)p.r(G)p.r(G)p.r(A)p.r(U)p.r(C)p.r(U)p.r(U)p.r(G)p.r(A)p.r(A)p.r(G)p.r(A)p.r(C)p.r(C)p.r(T)p.r(T)}|RNA2{r(G)p.r(G)p.r(U)p.r(C)p.r(U)p.r(U)p.[fl2r](C)p.r(A)p.r(A)p.r(G)p.r(A)p.r(U)p.r(C)p.r(C)p.r(U)p.r(C)p.[fl2r](U)p.r(A)p.r(G)p.r(T)p.r(T)}$$$RNA1{StrandType:ss}|RNA2{StrandType:as}$” showed a target mRNA knockdown of 95%. Work on “RNA1{r(G)p.m(C)p.r(A)p.r(G)p.r(C)p.r(A)p.r(C)p.r(G)p.r(A)p.r(C)p.r(U)p.r(U)p.r(C)p.r(U)p.r(U)p.r(C)p.r(A)p.r(A)p.r(G)p.r(U)p.r(U)}|RNA2{r(C)p.m(U)p.r(U)p.r(G)p.r(A)p.r(A)p.r(G)p.r(A)p.r(A)p.r(G)p.r(U)p.r(C)p.r(G)p.r(U)p.r(G)p.r(C)p.r(U)p.r(G)p.r(C)p.r(U)p.r(U)}$$$RNA1{StrandType:ss}|RNA2{StrandType:as}$” yielded a target mRNA knockdown of 62.7%.
